The source of these data is patent US20240360178A1, “MACROCYCLIC IMMUNOMODULATORS” (Bristol-Myers Squibb Company, priority 2021, published 2024).

Positions of bridges follow the written chain, without caps; N, C: chain ends. Non-standard residues stand in square brackets, D forms with d. Residues, ends and D or L forms follow the SMILES beside them. *: point of attachment. Ala(1H-tetrazol-5-yl) = N[C@@H](Cc1nnn[nH]1)C(=O)O; Phe(3-CF3) = N[C@@H](Cc1cccc(C(F)(F)F)c1)C(=O)O; Phe(4-COOH) = N[C@@H](Cc1ccc(C(=O)O)cc1)C(=O)O; Bip = N[C@@H](Cc1ccc(-c2ccccc2)cc1)C(=O)O; NMeY = CN[C@@H](Cc1ccc(O)cc1)C(=O)O; Val(3-OH) = CC(C)(O)[C@H](N)C(=O)O; NMeF = CN[C@@H](Cc1ccccc1)C(=O)O; Cha = N[C@@H](CC1CCCCC1)C(=O)O; Ala(CN) = N#CC[C@H](N)C(=O)O; NMeS = CN[C@@H](CO)C(=O)O; dPip = O=C(O)[C@H]1CCCCN1; Carboxymethyl = O=C(O)C*; NMeA = CN[C@@H](C)C(=O)O; Nle = CCCC[C@H](N)C(=O)O; Orn = NCCC[C@H](N)C(=O)O; Dab = NCC[C@H](N)C(=O)O; Sar = CNCC(=O)O

The target in this assay is T1, human PD-1 (Jurkat-PD-1 cells) / PE-labeled human PD-L1-Ig (Homo sapiens, UniProt Q15116).
T1 construct: expressed in transfected cells; host or cells: Jurkat cell line over-expressing human PD-1
The assay can be described thus: Jurkat-PD-1 Cell Binding High-Content Screening Assay (CBA); Jurkat hPD1-PDL1 assay. As to conditions: Jurkat cell line over-expressing human PD-1; PE-labeled PD-L1-Ig 20 nM final; compound incubated 2 hours at 37° C.; read-out: Jurkat HPD1-PDL1 IC50. The gist of the method: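 Jurkat cells overexpressing human PD-1 (8×10^3 per well, DMEM with 10% FCS) were preincubated with compound for 2 hours at 37° C. PE-labeled human PD-L1-Ig was then added at 20 nM final. Binding was quantified by high-content imaging.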

T1 sequence (Q15116 25-288): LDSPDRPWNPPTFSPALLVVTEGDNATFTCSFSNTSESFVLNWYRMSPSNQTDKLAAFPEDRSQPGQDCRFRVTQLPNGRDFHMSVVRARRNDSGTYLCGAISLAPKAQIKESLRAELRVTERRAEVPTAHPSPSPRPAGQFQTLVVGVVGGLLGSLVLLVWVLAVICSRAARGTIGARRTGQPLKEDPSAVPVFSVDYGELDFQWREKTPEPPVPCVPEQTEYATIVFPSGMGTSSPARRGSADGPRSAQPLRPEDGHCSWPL

For the compound `CC(C)C[C@@H]1NC(=O)[C@H](Cc2cccc(C(F)(F)F)c2)NC(=O)[C@H](CC(=O)O)NC(=O)[C@H](Cc2ccc(O)cc2)NC(=O)[C@H](Cc2ccccc2)NC(=O)CSC[C@@H](C(=O)N[C@@H](C)C(N)=O)NC(=O)[C@H](CO)NC(=O)[C@H](C(C)C)NC(=O)[C@H](CC(C)C)NC(=O)[C@H](CC(N)=O)NC(=O)CN(C)C(=O)[C@H](C)N(C)C(=O)[C@H](C(C)C)NC(=O)[C@H](Cc2ccc(-c3ccccc3)cc2)NC1=O` [Example 1081] ({CH2CO}-FYD[Phe(3-CF3)]L[Bip]V[NMeA][Sar]NLVSCA-NH2; thioether N-14), the IC50 was 230 nM.

As for `CC(C)C[C@@H]1NC(=O)[C@H](Cc2c[nH]c3ccccc23)NC(=O)[C@H](CC(=O)O)NC(=O)[C@H](Cc2ccc(OCC(=O)O)cc2)NC(=O)[C@H]([C@@H](C)O)NC(=O)CSC[C@@H](C(=O)N[C@@H](CCN)C(N)=O)NC(=O)[C@H](CO)NC(=O)[C@H](C(C)(C)O)NC(=O)[C@H](CC2CCCCC2)NC(=O)[C@H](CCN)NC(=O)[C@H]2CCCCN2C(=O)[C@H]2CCCN2C(=O)[C@H](C(C)C)NC(=O)[C@H](Cc2ccc(-c3ccccc3)cc2)NC1=O` [Example 1188] ({CH2CO}-TY(Carboxymethyl)DWL[Bip]V[dP][dPip][Dab][Cha][Val(3-OH)]SC[Dab]-NH2; thioether N-14), the 50% inhibitory concentration (IC50) is 50 nM.

`CC(C)[C@@H]1NC(=O)[C@H](Cc2c[nH]c3ccccc23)NC(=O)[C@H](CC(=O)O)NC(=O)[C@H](Cc2ccc(C(=O)O)cc2)NC(=O)[C@H](Cc2ccc(OCC(=O)O)cc2)NC(=O)CSC[C@@H](C(=O)N[C@@H](C)C(N)=O)NC(=O)[C@H]([C@@H](C)O)NC(=O)[C@H](C(C)C)NC(=O)[C@H](CC2CCCCC2)NC(=O)[C@H](CCN)NC(=O)[C@H](Cc2ccc(O)cc2)N(C)C(=O)[C@H](CCCN)NC(=O)[C@H](CCC(=O)O)NC(=O)[C@H](Cc2ccc(-c3ccccc3)cc2)NC1=O` [Example 1433] ({CH2CO}-Y(Carboxymethyl)[Phe(4-COOH)]DWV[Bip]E[Orn][NMeY][Dab][Cha]VTCA-NH2; thioether N-14): the concentration for half-maximal inhibition (IC50) was determined as 260 nM.

Turning to `CC(C)C[C@@H]1NC(=O)[C@H](Cc2c[nH]c3ccccc23)NC(=O)[C@H](CC(=O)O)NC(=O)[C@H](Cc2ccc(O)cc2)NC(=O)[C@H](Cc2ccccc2)NC(=O)CSC[C@@H](C(=O)NCC(N)=O)NC(=O)[C@H](CO)NC(=O)[C@H](C(C)C)NC(=O)[C@H](CC(C)C)NC(=O)[C@H](CCCNC(=N)N)NC(=O)CN(C)C(=O)[C@H](C)N(C)C(=O)[C@H](CC(=O)O)NC(=O)[C@H](Cc2ccc(-c3ccccc3)cc2)NC1=O` [Example 1237] ({CH2CO}-FYDWL[Bip]D[NMeA][Sar]RLVSCG-NH2; thioether N-14), the IC50 was 520 nM.

On to `CCCC[C@@H]1NC(=O)[C@H](CCCCN)NC(=O)[C@H](Cc2ccccc2)N(C)C(=O)[C@H](CC(=O)O)NC(=O)[C@H](CCCNC(=N)N)NC(=O)[C@H](Cc2ccc(-c3ccccc3)cc2)NC(=O)[C@H](C(C)C)NC(=O)[C@H](Cc2c[nH]c3ccccc23)NC(=O)[C@H](CC(=O)O)NC(=O)[C@H](Cc2ccc(O)cc2)NC(=O)[C@H](Cc2ccccc2)NC(=O)CSC[C@@H](C(=O)NCC(N)=O)NC(=O)[C@H](CCCNC(=N)N)NC(=O)[C@H](C(C)C)NC1=O` [Example 1192] ({CH2CO}-FYDWV[Bip]RD[NMeF]K[Nle]VRCG-NH2; thioether N-14), for which the IC50 is 920 nM.

With `CC(C)C[C@@H]1NC(=O)[C@H](Cc2c[nH]c3ccccc23)NC(=O)[C@H](CC(=O)O)NC(=O)[C@H](Cc2ccc(O)cc2)NC(=O)[C@H](CC(N)=O)NC(=O)CSC[C@@H](C(=O)NCC(N)=O)NC(=O)[C@H]([C@@H](C)O)NC(=O)[C@H](C(C)C)NC(=O)[C@H](CC(C)C)NC(=O)[C@H](CC(N)=O)NC(=O)[C@H]2CCCN2C(=O)[C@H](CCCN)NC(=O)[C@H](C(C)C)NC(=O)[C@H](Cc2ccc(-c3ccccc3)cc2)NC1=O` [Example 1424] ({CH2CO}-NYDWL[Bip]V[Orn][dP]NLVTCG-NH2; thioether N-14), the IC50 is 660 nM.

In the case of `CC(C)C[C@@H]1NC(=O)[C@H](CCN)NC(=O)[C@H](Cc2ccccc2)N(C)C(=O)[C@H](C)N(C)C(=O)[C@H](CCC(=O)O)NC(=O)[C@H](Cc2ccc(-c3ccccc3)cc2)NC(=O)[C@H](C(C)C)NC(=O)[C@H](Cc2c[nH]c3ccccc23)NC(=O)[C@H](CC(=O)O)NC(=O)[C@H](Cc2ccc(O)cc2)NC(=O)[C@H](Cc2ccccc2)NC(=O)CSC[C@@H](C(=O)N[C@@H](C)C(N)=O)NC(=O)[C@H]([C@@H](C)O)NC(=O)[C@H](C(C)C)NC1=O` [Example 1342] ({CH2CO}-FYDWV[Bip]E[NMeA][NMeF][Dab]LVTCA-NH2; thioether N-14), the IC50 was 70 nM.

As to `CC(C)C[C@@H]1NC(=O)[C@H](Cc2c[nH]c3ccccc23)NC(=O)[C@H](CC(=O)O)NC(=O)[C@H](Cc2ccc(O)cc2)NC(=O)[C@H](Cc2ccccc2)NC(=O)CSC[C@@H](C(=O)N[C@@H](C)C(N)=O)NC(=O)[C@H]([C@@H](C)O)NC(=O)[C@H](C(C)C)NC(=O)[C@H](CC(C)C)NC(=O)[C@H](CCN)NC(=O)[C@H]2CCCN2C(=O)[C@H](C)N(C)C(=O)[C@H](C(C)C)NC(=O)[C@H](Cc2ccc(-c3ccccc3)cc2)NC1=O` [Example 1398] ({CH2CO}-FYDWL[Bip]V[NMeA][dP][Dab]LVTCA-NH2; thioether N-14), the half-inhibitory concentration (IC50) is 50 nM.

In the case of `CC(C)C[C@@H]1NC(=O)[C@H](C)NC(=O)CN(C)C(=O)[C@H](C)N(C)C(=O)[C@H](C(C)C)NC(=O)[C@H](Cc2ccc(-c3ccccc3)cc2)NC(=O)[C@H](CC(C)C)NC(=O)[C@H](Cc2c[nH]c3ccccc23)NC(=O)[C@H](CC(=O)O)NC(=O)[C@H](Cc2ccc(O)cc2)NC(=O)[C@H](Cc2ccccc2)NC(=O)CSC[C@@H](C(=O)NCC(N)=O)NC(=O)[C@H](CO)NC(=O)[C@H](C(C)C)NC1=O` [Example 1130] ({CH2CO}-FYDWL[Bip]V[NMeA][Sar]ALVSCG-NH2; thioether N-14), the half-inhibitory concentration (IC50) is 500 nM.

`CC(C)C[C@@H]1NC(=O)[C@H](CCCNC(=N)N)NC(=O)[C@H](Cc2ccccc2)N(C)C(=O)[C@H](C)N(C)C(=O)[C@H](CCCNC(=N)N)NC(=O)[C@H](Cc2ccc(-c3ccccc3)cc2)NC(=O)[C@H](C(C)C)NC(=O)[C@H](Cc2c[nH]c3ccccc23)NC(=O)[C@H](CC(=O)O)NC(=O)[C@H](Cc2ccc(C(=O)O)cc2)NC(=O)[C@H](Cc2cnc[nH]2)NC(=O)CSC[C@@H](C(=O)NCC(N)=O)NC(=O)[C@H](CO)NC(=O)[C@H](C(C)C)NC1=O` [Example 1291] ({CH2CO}-H[Phe(4-COOH)]DWV[Bip]R[NMeA][NMeF]RLVSCG-NH2; thioether N-14): the IC50 is 90 nM.

In the case of `CC(C)C[C@@H]1NC(=O)[C@H](Cc2c[nH]c3ccccc23)NC(=O)[C@H](CC#N)NC(=O)[C@H](Cc2ccc(O)cc2)NC(=O)[C@H](Cc2ccccc2)NC(=O)CSC[C@@H](C(=O)N[C@@H](C)C(N)=O)NC(=O)[C@H](CO)NC(=O)[C@H](C(C)C)NC(=O)[C@H](CC(C)C)NC(=O)[C@H](CC(N)=O)NC(=O)[C@H]2CCCN2C(=O)[C@H](C)N(C)C(=O)[C@H](C(C)C)NC(=O)[C@H](Cc2ccc(-c3ccccc3)cc2)NC1=O` [Example 1429] ({CH2CO}-FY[Ala(CN)]WL[Bip]V[NMeA][dP]NLVSCA-NH2; thioether N-14), the IC50 came to 10 nM.

For `CC(C)C[C@@H]1NC(=O)[C@H](Cc2c[nH]c3ccccc23)NC(=O)[C@H](CC(=O)O)NC(=O)[C@H](Cc2ccc(O)cc2)NC(=O)[C@H](Cc2ccccc2)NC(=O)CSC[C@@H](C(=O)NCC(N)=O)NC(=O)[C@H](CO)NC(=O)[C@H](C(C)C)NC(=O)[C@H](CC(C)C)NC(=O)[C@H](CC(N)=O)NC(=O)[C@H](CO)N(C)C(=O)[C@H](C)N(C)C(=O)[C@H](C(C)C)NC(=O)[C@H](Cc2ccc(-c3ccccc3)cc2)NC1=O` [Example 1084] ({CH2CO}-FYDWL[Bip]V[NMeA][NMeS]NLVSCG-NH2; thioether N-14), the IC50 was 240 nM.

Consider `CC(C)C[C@@H]1NC(=O)[C@H](CCCNC(=N)N)NC(=O)[C@H](Cc2ccccc2)N(C)C(=O)[C@H](C)N(C)C(=O)[C@H](CCCNC(=N)N)NC(=O)[C@H](Cc2ccc(-c3ccccc3)cc2)NC(=O)[C@H](C(C)C)NC(=O)[C@H](Cc2c[nH]c3ccccc23)NC(=O)[C@H](CC(=O)O)NC(=O)[C@H](Cc2ccc(O)cc2)NC(=O)[C@H](Cc2ccccc2)NC(=O)CSC[C@@H](C(=O)N[C@@H](CCC(=O)O)C(N)=O)NC(=O)[C@H](CO)NC(=O)[C@H](C(C)C)NC1=O` [Example 1105] ({CH2CO}-FYDWV[Bip]R[NMeA][NMeF]RLVSCE-NH2; thioether N-14), for which the IC50 came to 330 nM.

On to `CC(C)C[C@@H]1NC(=O)[C@H](Cc2c[nH]c3ccccc23)NC(=O)[C@H](CC(=O)O)NC(=O)[C@H](Cc2ccc(O)cc2)NC(=O)[C@H](Cc2ccccc2)NC(=O)CSC[C@@H](C(=O)N[C@@H](C)C(N)=O)NC(=O)[C@H](CO)NC(=O)[C@H](C(C)C)NC(=O)[C@H](CC(C)C)NC(=O)[C@H](CC(N)=O)NC(=O)[C@H](Cc2ccccc2)N(C)C(=O)[C@H](C)N(C)C(=O)[C@H](C(C)C)NC(=O)[C@H](Cc2ccc(-c3ccccc3)cc2)NC1=O` [Example 1060] ({CH2CO}-FYDWL[Bip]V[NMeA][NMeF]NLVSCA-NH2; thioether N-14), for which the half-maximal inhibitory concentration (IC50) is 140 nM.

As to `CC(C)C[C@@H]1NC(=O)[C@H](Cc2c[nH]c3ccccc23)NC(=O)[C@H](Cc2nn[nH]n2)NC(=O)[C@H](Cc2ccc(O)cc2)NC(=O)[C@H](Cc2ccccc2)NC(=O)CSC[C@@H](C(=O)N[C@@H](C)C(N)=O)NC(=O)[C@H](CO)NC(=O)[C@H](C(C)C)NC(=O)[C@H](CC(C)C)NC(=O)[C@H](CC(N)=O)NC(=O)[C@H]2CCCN2C(=O)[C@H](C)N(C)C(=O)[C@H](C(C)C)NC(=O)[C@H](Cc2ccc(-c3ccccc3)cc2)NC1=O` [Example 1428] ({CH2CO}-FY[Ala(1H-tetrazol-5-yl)]WL[Bip]V[NMeA][dP]NLVSCA-NH2; thioether N-14), the IC50 worked out at 370 nM.
